From US20170348231A1, “COMPOSITION AND METHOD FOR BUCCAL ADMINISTRATION OF GnRH AGONISTS” (NHTherapeutics INC, priority 2016, published 2017)

Key:
[1] = system: male beagle dogs; test: Oromucosal (buccal) spray in male beagle dogs, testosterone response; assay type: in vivo; conditions: 0.5 mg oromucosal spray
Description: The GnRH analogue leuprorelin acetate (leuprolide acetate) which is available as an injectable, was reformulated as described in Example 3. This spray was administered to male beagle dogs at a dose of 0.5 mg suspended in 140 μl and dispensed in a single spray to the inner cheek of male beagle dogs (studies 1 and 2). In addition, formulation 2 was sprayed to the mucosae at the back of the throat in a separate study to determine if this would alter the absorption characteristics (study 3). The two formulations were administered with a one week washout period. Drug was dispensed in a single spray with a volume of 140 μl (studies 1 and 2) or three consecutive sprays (study 3). The aim of the study was to determine if leuprolide could be delivered as an oralmucosal spray and to determine the minimum exposure required to increase levels of testosterone.
The blood levels for leuprolide were monitored 15 minutes before the start of the study and at time “0” (immediately after drug administration), then at 15, 30 minutes and at 1, 2, 3 and 5 hours (postdosing; studies 1 and 2). In addition, for study 3, two additional time points were included at 5 and 10 min post dosing. […]
The study was conducted by the University Health Network in Toronto and specifically at the Toronto Western Hospital. Serum samples were analysed at Inventiv Health in Quebec City.

[2] = system: normally menstruating females; conditions: 25 μg LH-RH each, double stimulation on three consecutive days, 12 females; cited from earlier work
[3] = intranasal; cited from earlier work
[4] = system: patient suffering from hypogonadotropic hypogonadism; conditions: intranasal, daily administration of a low dose; cited from earlier work

Question: With CCNC(=O)[C@@H]1CCCN1C(=O)[C@H](CCCNC(=N)N)NC(=O)[C@H](CC(C)C)NC(=O)[C@@H](CC(C)C)NC(=O)[C@H](Cc1ccc(O)cc1)NC(=O)[C@H](CO)NC(=O)[C@H](Cc1c[nH]c2ccccc12)NC(=O)[C@H](Cc1c[nH]cn1)NC(=O)[C@@H]1CCC(=O)N1 [Leuprolide acetate, leuprolide acetate] as the molecule, how does the “exposure levels at which the testosterone increase occurred” value [1] read?
Answer: The value was “at least 30 pg/ml”.

Question: What about the “peak testosterone increase compared to baseline” value ([1]; FIGS. 1a, b) of the same molecule?
Answer: Its value is about 200%.

Question: Which “serum LH levels” value [2] does the source give for “luteinizing hormone-releasing hormone (QHWSYGLRPG; Gonadoliberin-1; UniProt P01148 24-33, looked up) [LH-RH, Native or physiological GnRH, hormone secreted by the hypothalamus]” here?
Answer: Its value is “Increases in serum LH levels were found after each of the two stimulations”.

Question: With CCNC(=O)[C@@H]1CCCN1C(=O)[C@H](CCCNC(=N)N)NC(=O)[C@H](CC(C)C)NC(=O)[C@@H](COC(C)(C)C)NC(=O)[C@H](Cc1ccc(O)cc1)NC(=O)[C@H](CO)NC(=O)[C@H](Cc1c[nH]c2ccccc12)NC(=O)[C@H](Cc1cnc[nH]1)NC(=O)[C@@H]1CCC(=O)N1 [buserelin] as the molecule, how does the bioavailability [3] read?
Answer: Its bioavailability is 3%.

Question: What about the testosterone [4] of the same molecule?
Answer: The testosterone was “chronic and sustained increase in testosterone”.
